Assay: Aerosol purity of condensation aerosol vaporized from drug-coated substrate in substrate screening apparatus (HPLC of filter extract)
Assay type: physicochemical
Details: for Aerosol Purity (%): 14 μm coating, 30 liters/minute; for Aerosol Purity (% ± SD): perforated 304 stainless steel, 0.4 mg/cm^2, approx. 375° C.
Description: The substrate screening apparatus 400 is made of a machined plastic (polyoxymethylene, DELRIN® Acetal Resin, DuPont, Wilmington, DE) block 402 with a 2 cm^2 cross-sectional area for mounting a substrate 412. Block 402 includes a first airway 404 extending from first inlet 414 to outlet 422. Block 402 also include a second airway 406 extending from second inlet 416 to substrate 412, where it typically joins the first airway. The substrate 412 is mounted in the substrate screening apparatus 400 across two electrodes 420. A first air flow 414 is established in first airway 404 and a second air flow 416 is established in second airway 406 such that the second air flow 416 passes from the second airway 406 to first airway 404 through holes in the substrate 412. While providing air flows 414 and 416, the substrate 412 is heated, typically by discharging a capacitor (not shown) across the substrate 412. In a one embodiment, the flow of air passing through holes in the substrate 412 is in a direction orthogonal to that of air flow 414. Substrate 412 is coated with a drug composition film. The substrate 412 is heated to vaporized all or a portion of the drug composition. The vaporized drug subsequently cools and condenses to form a condensation aerosol that is carried to the outlet by air flow 414, joined by air flow 416). Accordingly, the condensation aerosol is emitted from the outlet 422.
The test substrates were then coated with a drug composition. The drug was typically dissolved in a volatile organic solvent (e.g., dichloromethane/methanol mixture or acetone or other suitable organic solvent) and then spray-coated onto the test substrates using an automated spray coater. Coating parameters, such as the drug concentration in the coating solution, solution flow rate, were selected to obtain a uniform drug coating of the desired coating density (i.e., mass/area).
Total air flow through the substrate screening apparatus was set by providing air flows 414 and 416 at a desired ratio. (As used herein, “across” air flow refers to air flow 414 and “bottom” air flow refers to air flow 416.) Brass electrodes 420 attached to the substrate screening apparatus 400 were used to clamp the substrate 412 in place and provide electrical connections. For most experiments, a 1-Farad capacitor was used as the energy source. The capacitor was typically charged to 11-14 volts, depending on the desired substrate temperature. A high current relay was used to connect the circuit and discharge the capacitor across the substrate to induce heating and vaporization of the drug.
FIG. 5 is a schematic of another embodiment of a substrate screening apparatus 500 that was used to direct air flow through the holes of coated polyimide film (KAPTON® polyimide film) substrates (see FIGS. 2A and 2B). Substrate screening apparatus 500 is similar in configuration and operation to substrate screening apparatus 400, with the exception that substrate screening apparatus 500 includes two electrodes 502 on the same side of the screening apparatus 500, whereas substrate screening apparatus 400 includes two electrodes 420 on opposite sides of the screening apparatus 400. In the examples using polyimide film substrates described below, a polyimide film substrate coated with a drug composition was placed in substrate screening apparatus 500 across electrodes 502. A computer-controlled power supply was connected to the electrodes. The power supply was typically capable of heating the polyimide film substrate to the target temperature within 300 milliseconds, and the substrate was kept at the target temperature for a duration of 1 second.
To determine aerosol purity and emitted dose, a 2 μm Teflon filter (ZEFLUOR PTFE filters, available from Zefon International, Inc., Ocala, FL) was placed immediately downstream from the screening apparatus during aerosol generation. […]

**Q.** With `NCC(CC(=O)O)c1ccc(Cl)cc1` (stereo not drawn) [baclofen] as the molecule, how does the “drug purity (aerosol)” value (perforated polyimide film, across:bottom 27:1, 350° C.) read?
**A.** around 20%

**Q.** With `CCCc1nn(C)c2c(=O)[nH]c(-c3cc(S(=O)(=O)N4CCN(C)CC4)ccc3OCC)nc12` [sildenafil free base, sildenafil] as the molecule, how does the aerosol purity (perforated 316 stainless steel, 1:9 across:bottom, drug coating thicknesses up to 6 μm, 28.3 liters/minute) read?
**A.** ≥ 97%

**Q.** What about the aerosol purity (solid 304 stainless steel, 100% air flow across, drug coating thickness 2 μm) of the same molecule?
**A.** ≤ 94%

**Q.** What about the aerosol purity (solid 304 stainless steel, 100% air flow across, drug coating thicknesses greater than about 1 μm) of the same molecule?
**A.** below 97%

**Q.** For `CN1CCN(CCCN2c3ccccc3Sc3ccc(Cl)cc32)CC1` [Prochlorperazine, prochlorperazine], which “Coated Aerosol Purity (%)” value (coated drug on polyimide film, coating thickness 14 μm) is on record?
**A.** 98.85%

**Q.** And the aerosol purity (perforated polyimide film, 100% of air flow through the substrate, up to at least 30 μm coating thickness, 28.3 liters/minute)?
**A.** ≥ 98%

**Q.** What about the “Aerosol Purity (%)” value (perforated polyimide film, large holes, across:bottom 75:25) of the same molecule?
**A.** 97.7%

**Q.** And the “Aerosol Purity (%)” value (perforated polyimide film, large holes, across:bottom 100:0)?
**A.** 97.1%

**Q.** What about the “Aerosol Purity (%)” value (perforated polyimide film, small holes, across:bottom 75:25) of the same molecule?
**A.** 97.4%

**Q.** What about the “Aerosol Purity (%)” value (perforated polyimide film, small holes, across:bottom 100:0) of the same molecule?
**A.** 94.8%

**Q.** For `CC1(C)O[C@@H]2C[C@H]3[C@@H]4C[C@H](F)C5=CC(=O)C=C[C@]5(C)[C@H]4[C@@H](O)C[C@]3(C)[C@]2(C(=O)CO)O1` [Flunisolide, flunisolide], which “Aerosol Purity (% ± SD)” value (across:bottom 18:10, hole diameter 0.005″, porosity 5%) is on record?
**A.** 80.1 ± 1.8%

**Q.** What about the “Aerosol Purity (% ± SD)” value (across:bottom 18:10, hole diameter 0.005″, porosity 10%) of the same molecule?
**A.** 81.4 ± 0.9%

**Q.** And the “Aerosol Purity (% ± SD)” value (across:bottom 18:10, hole diameter 0.005″, porosity 20%)?
**A.** 90.7 ± 0.7%

**Q.** What about the “Aerosol Purity (% ± SD)” value (across:bottom 18:10, hole diameter 0.010″, porosity 5%) of the same molecule?
**A.** 83.6 ± 1.4%

**Q.** And the “Aerosol Purity (% ± SD)” value (across:bottom 18:10, hole diameter 0.010″, porosity 10%)?
**A.** 75.4 ± 1.2%

**Q.** And the “Aerosol Purity (% ± SD)” value (across:bottom 18:10, hole diameter 0.010″, porosity 20%)?
**A.** 80.8 ± 1.4%

**Q.** And the “Aerosol Purity (% ± SD)” value (across:bottom 18:10, hole diameter 0.010″, porosity 40%)?
**A.** 85.6 ± 0.8%

**Q.** What about the “Aerosol Purity (% ± SD)” value (across:bottom 18:10, hole diameter 0.020″, porosity 5%) of the same molecule?
**A.** 77.8 ± 2%

**Q.** What about the “Aerosol Purity (% ± SD)” value (across:bottom 18:10, hole diameter 0.020″, porosity 10%) of the same molecule?
**A.** 77.2 ± 2.8%

**Q.** What about the “Aerosol Purity (% ± SD)” value (across:bottom 18:10, hole diameter 0.020″, porosity 20%) of the same molecule?
**A.** 74.7 ± 1%

**Q.** And the “Aerosol Purity (% ± SD)” value (across:bottom 18:10, hole diameter 0.020″, porosity 40%)?
**A.** 81.9 ± 1.2%

**Q.** What about the “Aerosol Purity (% ± SD)” value (across:bottom 18:10, hole diameter 0.040″, porosity 5%) of the same molecule?
**A.** 70.4 ± 1.1%

**Q.** What about the “Aerosol Purity (% ± SD)” value (across:bottom 18:10, hole diameter 0.040″, porosity 40%) of the same molecule?
**A.** 77 ± 1%

**Q.** And the “Aerosol Purity (% ± SD)” value (across:bottom 23:5, hole diameter 0.005″, porosity 5%)?
**A.** 73.6 ± 2.3%

**Q.** And the “Aerosol Purity (% ± SD)” value (across:bottom 23:5, hole diameter 0.005″, porosity 10%)?
**A.** 82.7 ± 1.4%

**Q.** What about the “Aerosol Purity (% ± SD)” value (across:bottom 23:5, hole diameter 0.005″, porosity 20%) of the same molecule?
**A.** 87.9 ± 2%

**Q.** What about the “Aerosol Purity (% ± SD)” value (across:bottom 23:5, hole diameter 0.010″, porosity 5%) of the same molecule?
**A.** 76.1 ± 0.1%

**Q.** And the “Aerosol Purity (% ± SD)” value (across:bottom 23:5, hole diameter 0.010″, porosity 10%)?
**A.** 71.4 ± 0.7%

**Q.** And the “Aerosol Purity (% ± SD)” value (across:bottom 23:5, hole diameter 0.010″, porosity 20%)?
**A.** 80.6 ± 3.1%

**Q.** What about the “Aerosol Purity (% ± SD)” value (across:bottom 23:5, hole diameter 0.010″, porosity 40%) of the same molecule?
**A.** 84.2 ± 0.1%

**Q.** What about the “Aerosol Purity (% ± SD)” value (across:bottom 23:5, hole diameter 0.020″, porosity 5%) of the same molecule?
**A.** 77.9 ± 1.1%

**Q.** What about the “Aerosol Purity (% ± SD)” value (across:bottom 23:5, hole diameter 0.020″, porosity 10%) of the same molecule?
**A.** 72.7 ± 1.8%

**Q.** And the “Aerosol Purity (% ± SD)” value (across:bottom 23:5, hole diameter 0.020″, porosity 20%)?
**A.** 69.9 ± 0.3%

**Q.** What about the “Aerosol Purity (% ± SD)” value (across:bottom 23:5, hole diameter 0.020″, porosity 40%) of the same molecule?
**A.** 80 ± 1.3%

**Q.** And the “Aerosol Purity (% ± SD)” value (across:bottom 23:5, hole diameter 0.040″, porosity 5%)?
**A.** 68.6 ± 1.1%

**Q.** And the “Aerosol Purity (% ± SD)” value (across:bottom 23:5, hole diameter 0.040″, porosity 40%)?
**A.** 74.3 ± 7.3%

**Q.** For cyclobenzaprine fumarate, which aerosol purity (perforated polyimide film, all three test conditions (6:1 at 375° C., 3:1 at 350° C., 1:1 at 350° C.)) is on record?
**A.** > 99.7%

**Q.** Which aerosol purity (non-perforated SULFINERT-treated and heat-passivated 304 stainless steel, 350° C., no air flow ratio) does the source give for `C[C@@H]1C[C@H]2[C@@H]3CCC4=CC(=O)C=C[C@]4(C)[C@@]3(Cl)[C@@H](O)C[C@]2(C)[C@@]1(OC(=O)c1ccco1)C(=O)CCl` here?
**A.** poor

**Q.** For `CCC(=O)O[C@]1(C(=O)SCF)[C@H](C)C[C@H]2[C@@H]3C[C@H](F)C4=CC(=O)C=C[C@]4(C)[C@@]3(F)[C@@H](O)C[C@@]21C` [fluticasone propionate], which aerosol purity (perforated polyimide film, all four test conditions (3:1 and 1:3, 325° C. and 350° C.)) is on record?
**A.** > 97%
